Earlier results in patent publication US20200281206A1, “SEXUAL ATTRACTION PHEROMONE OF TRIBOLIUM CASTANEUM AND INSECT CONTROL DEVICE” (YPF TECNOLOGÍA S.A., priority 2019, published 2020).

Test system: Tribolium castaneum
Conditions: prior-art finding

CCC(C)CCCC(C)CCC=O (stereo not shown) [4,8-dimethyldecanal]
sex of insects attracted: attracts both male and female insects
